Source: patent publication US9486440B2, “Uses of indole-ketones or indolidones as neuro-protective drugs” (UNIVERSITY OF MACAU, priority 2011, dated 2016)
pIC50: −log10 of the molar value.

Legend:
[1] = target: T1, recombinant human inducible NOS (iNOS) (Homo sapiens, UniProt P35228); assay: In vitro NOS activity assay, iNOS; format: biochemical; conditions: up to 1 mM
T1 construct: purchased Alexis Biochemicals (Lausen, Switzerland)
Method: In the in vitro NOS activity assay (Li et al., 2007), purified recombinant human nNOS, endothelial NOS (eNOS), and inducible NOS (iNOS) were bought from Alexis Biochemicals (Lausen, Switzerland). NOS activity was determined by monitoring the conversion of L-[3H]arginine to [3H]citrulline following the instructions provided in the kit (Calbiochem, USA). The reaction mixture contained a final volume of 40 μl with 25 mM Tris-Cl at pH 7.4, 3 μM tetrahydrobiopterin, 1 μM FAD, 1 μM FMN, 1 mM NADPH, 0.6 mM CaCl2, 0.1 μM calmodulin, 2.5 μg of pure NOS enzyme, 5 μl L-[3H]arginine (Perkin Elmer, Waltham, Mass., USA), and different concentrations of the tested reagents. The reaction mixture was incubated at 22° C. for 45 min. The reaction was quenched by adding 400 μl of stopping buffer (50 mM HEPES, pH 5.5, and 5 mM EDTA) for nNOS and eNOS reactions or by heating reactive tubes for iNOS. Unreacted L-[3H]arginine was then trapped by 100 μl of equilibrated resin provided in a spin cup followed by centrifugation for 30 s at 13,200 rpm. The filtrate was quantified by liquid scintillation counting.

CGNs = assay: Low potassium-induced cell death in CGNs, MTT assay; format: cell-based; conditions: 5 mM KCl BME medium, 24 hours; sunitinib 0.1-2 μM
Method: Cell viability was measured by MTT assay at 24 hours after low potassium challenge. […] After 24 hours of low potassium challenge, CGNs were assayed with an FDA/PI double staining. […] After 24 hours of low potassium challenge, CGNs were assayed with Hoechst staining. The number of apoptotic nuclei with condensed chromatin were counted from representative Hoechst staining photomicrographs and represented as a percentage of the total number of nuclei counted. […] Intracellular NO level was measured using DAF-FM diacetate as a probe at 4 hour after low potassium challenge. Data, expressed as percentage of control (CGNs were cultured in high potassium medium), were the mean±SEM of three separate experiments; *p<0.05 and **p<0.01 versus low potassium group in (A) and (D) or versus control in (C); ^##p<0.01 versus low potassium group in (C) (Turkey's test).
It was previously reported that low potassium could induce typical apoptosis in cerebellar granule neurons (CGNs) (Fu et al., 2008). […] Cell viability was measured with an MTT assay 24 hours after the low potassium treatment.

PDGFR = conditions: cited from earlier work
ERK and Akt pathways = assay: Western blot of phospho-Akt and phospho-ERK after MPP+; format: cell-based; conditions: data not shown
nNOS protein expression = assay: Western blot of nNOS protein in CGNs after MPP+; format: cell-based, rat; conditions: 20 μM, 35 μM MPP+
Method: Briefly, neurons were harvested in a cell lysis buffer. Protein was separated on SDS-polyacrylamide gel and transferred onto polyvinyldifluoride membranes. After membrane blocking, proteins were detected using primary antibodies. After incubation at 4° C. overnight, signals were obtained after binding to chemiluminescent secondary antibodies. Blots were developed using an ECL plus kit (Amersham Bioscience, Aylesbury, UK) and exposed to Kodak autoradiographic films. All data were from three independent experiments and were expressed as the ratio to optical density (OD) values of the corresponding controls for statistical analyses.

th gene = assay: MPTP zebrafish, th gene expression by real-time PCR; format: in vivo; conditions: 200 μM MPTP, 48 hours
Method: Wild-type zebrafish (AB strain) and Tg (fli-1:EGFP) transgenic zebrafish were maintained as described in the Zebrafish Handbook (Westerfield, 1993). Zebrafish embryos were generated by natural pair-wise mating (3-12 months old) and raised at 28.5° C. in embryo medium (13.7 mM NaCl, 540 μM KCl, pH 7.4, 25 μM Na2HPO4, 44 μM KH2PO4, 300 μM CaCl2, 100 μM MgSO4, 420 μM NaHCO3, pH 7.4). […] An equal concentration of DMSO in embryo medium was used as vehicle control in each experiment.
Healthy zebrafish embryos were picked out and […] manually at 1 day post fertilization (dpf) and distributed into a 12-well plate with 20 fish embryos or a 6-well microplate with 30 fish embryos in each well. […] Thus subsequent studies were done with 200 μM MPTP for whole-mount immunostaining and gene expression experiments.
Total RNA was extracted from 30 zebrafish larvae of each treatment group using the RNeasy Mini Kit (Qiagen, USA) according to the manufacturer's instructions. […] The expression of the mRNA was normalized to the amount of bactin1 using the relative quantification method described by the manufacturer. […]

recombinant human MAO-B = target: T2, recombinant human MAO-B (Homo sapiens, UniProt P27338); assay: MAO-Glo MAO-B inhibition assay; format: biochemical
T2 construct: purchased Sigma-Aldrich
Method: The MAO-B inhibition activity of SU4312 was determined by MAO-Glo™ Assay kit (Promega Inc., USA). The recombinant human MAO-B enzymes and selegiline used in this study were purchased from Sigma-Aldrich. Concentrations of SU4312 tested were 0.01, 0.03, 0.1, 0.3, 1.0 and 10 μM. Selegiline, a known MAO-B inhibitor, was used as positive control at 0.001, 0.01, 0.1, 1, 10 μM. Briefly, SU4312 and selegiline were incubated in 96-well opaque white plates with MAO substrate and rhMAO-B (0.25 mg protein/mL final concentration). Reactions were started by addition of rhMAO-B. Samples were incubated for 1 hour at room temperature. Reactions were terminated by addition of luciferin detection reagent, and samples were incubated an additional 20 minutes to allow development of luciferase- and esterase-dependent luminescence. Relative luminescence was determined with a plate luminometer and was corrected for background using no-MAO-B controls. Results are presented as percent of vehicle (total MAO-B activity).

T2 sequence (P27338 whole entry): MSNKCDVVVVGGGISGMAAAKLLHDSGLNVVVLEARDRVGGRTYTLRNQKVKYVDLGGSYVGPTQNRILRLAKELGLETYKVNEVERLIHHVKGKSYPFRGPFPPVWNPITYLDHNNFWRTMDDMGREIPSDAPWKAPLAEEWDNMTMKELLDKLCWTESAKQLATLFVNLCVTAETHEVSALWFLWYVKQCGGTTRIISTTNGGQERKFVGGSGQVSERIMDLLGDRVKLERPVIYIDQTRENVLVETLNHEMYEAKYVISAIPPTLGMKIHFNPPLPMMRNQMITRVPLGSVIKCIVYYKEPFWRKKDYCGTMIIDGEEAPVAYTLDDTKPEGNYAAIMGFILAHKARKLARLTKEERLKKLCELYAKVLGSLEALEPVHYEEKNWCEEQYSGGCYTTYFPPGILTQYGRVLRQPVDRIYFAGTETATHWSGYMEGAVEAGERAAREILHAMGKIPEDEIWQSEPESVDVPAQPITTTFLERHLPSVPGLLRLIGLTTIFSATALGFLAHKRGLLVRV

Clc1ccc(Nc2nnc(Cc3ccncc3)c3ccccc23)cc1 [PTK787/ZK222584]
inhibition of recombinant human iNOS [1]: did not inhibit any of the isoforms even at 1 mM
low potassium-induced cell death (MTT) (CGNs): at 3 and 10 μM both failed to block neuronal loss in vitro

Cc1cc(C)c(/C=C2\C(=O)Nc3ccccc32)[nH]1 [SU5416, (3Z)-3-[(3,5-dimethyl-1H-pyrrol-2-yl)methylidene]-1,3-dihydro-2H-indol-2-one]
activities of phospho-Akt and phospho-ERK (ERK and Akt pathways): could neither inhibit the activation of pro-apoptotic ERK pathway, nor reverse the decrease of pro-survival Akt pathway
MPP+-increased expression of nNOS protein (nNOS protein expression): reversed the increased expression of nNOS by MPP^+

CN(C)c1ccc(C=C2C(=O)Nc3ccccc32)cc1 [SU4312, 3-[4-(dimethylamino)benzylidenyl]indolin-2-one]
th gene expression down-regulated by MPTP (th gene): significantly alleviated the loss of DA neurons and decrease of th gene expression in a concentration-dependent manner
MAO-B activity in vitro (recombinant human MAO-B; figure legends): inhibited monoamine oxidase-B (MAO-B) activity in a concentration dependent manner
pIC50 (recombinant human MAO-B; rhMAO-B, 1 hour at room temperature): ~6.70
